How the values were obtained:
[1] = system: MRSA strain NRS382 biofilms; assay: Dynamic biofilm model, Live/Dead viability; type: cell-based, S. aureus; conditions: Staphylococcus aureus, 2 h, read-out: viability in dynamic biofilms (percentage of live cells; controls 100%)
Method: Biofilms were pre-stained with the Live/Dead stain (see methods) and viewed with 20× magnification. FIG. 9b depicts bacterial viability. Analysis of bacterial viability in NRS382 dynamic biofilms is based on mean fluorescent intensities of the Live/Dead viability stain when exposed to 100 μg/ml of PGH K-L (1.4 μM), K-L-PTD1 (1.4 μM), or vancomycin (69 μM) at a flow rate of 0.5 ml/min for 2 h and compared to PBS. Error bars represent SEM (N=3) of three independent 100×100 pixel squares identically located in each biofilm z-stack. […]
In order to visualize the viability of S. aureus NRS382 biofilms, each chamber of the flow cell was fluorescently labeled by the Live/Dead BacLight™ staining kit (Invitrogen, Carlsbad, Calif.) for one hour. […] To quantify the viability of S. aureus NRS382 biofilms at various time points in the presence of different treatments, one image at the center of z-series (i.e. center of the biofilm) for each time point was selected to represent each treatment group. Three squares representing 100×100 pixels were drawn in each image and the mean intensity of live (green channel) and dead (red channel) cell populations were calculated by Zen 2010 digital imaging software (Carl Zeiss). […] The percentage of live cells remaining in biofilms after various treatments was statistically analyzed by an unpaired t-test.

MRSA = conditions: systemically delivered, mouse models; cited from earlier work

Row | Structure (SMILES) | viability at 100 µg/mL [1] | protection from MRSA bacteremia / survival at 48 hours post infection (MRSA)
1 | CN[C@H](CC(C)C)C(=O)N[C@H]1C(=O)N[C@@H](CC(N)=O)C(=O)N[C@H]2C(=O)N[C@H]3C(=O)N[C@H](C(=O)N[C@H](C(=O)O)c4cc(O)cc(O)c4-c4cc3ccc4O)[C@H](O)c3ccc(c(Cl)c3)Oc3cc2cc(c3O[C@@H]2O[C@H](CO)[C@@H](O)[C@H](O)[C@H]2O[C@H]2C[C@](C)(N)[C@H](O)[C@H](C)O2)Oc2ccc(cc2Cl)[C@H]1O [vancomycin] | 40% | –
2 | Cc1onc(-c2ccccc2)c1C(=O)N[C@@H]1C(=O)N2[C@@H]1SC(C)(C)[C@@H]2C(=O)O [oxacillin] | – | 20%

Reference: patent US20160097044A1, “Antimicrobial Enzyme Fusions Reduce Resistance and Kill Intracellular Staphylococcus aureus” (The United States of America, as Represented by the …, priority 2014, published 2016)
